Results from publication PMC11345830, “Exploration of Hydrazide-Based HDAC8 PROTACs for the Treatment of Hematological Malignancies and Solid Tumors” (Journal of Medicinal Chemistry, 2024).

How the values were obtained:
Assay type in all cases: cell-based
HDAC6 [1] = molecular target: T1, HDAC6 (Homo sapiens, UniProt Q9UBN7); experiment: HDAC6 level in Jurkat cells, Western blot; design: endogenous in cells; host or cells: Jurkat; settings: 6 h
T1 sequence (Q9UBN7 1-1215): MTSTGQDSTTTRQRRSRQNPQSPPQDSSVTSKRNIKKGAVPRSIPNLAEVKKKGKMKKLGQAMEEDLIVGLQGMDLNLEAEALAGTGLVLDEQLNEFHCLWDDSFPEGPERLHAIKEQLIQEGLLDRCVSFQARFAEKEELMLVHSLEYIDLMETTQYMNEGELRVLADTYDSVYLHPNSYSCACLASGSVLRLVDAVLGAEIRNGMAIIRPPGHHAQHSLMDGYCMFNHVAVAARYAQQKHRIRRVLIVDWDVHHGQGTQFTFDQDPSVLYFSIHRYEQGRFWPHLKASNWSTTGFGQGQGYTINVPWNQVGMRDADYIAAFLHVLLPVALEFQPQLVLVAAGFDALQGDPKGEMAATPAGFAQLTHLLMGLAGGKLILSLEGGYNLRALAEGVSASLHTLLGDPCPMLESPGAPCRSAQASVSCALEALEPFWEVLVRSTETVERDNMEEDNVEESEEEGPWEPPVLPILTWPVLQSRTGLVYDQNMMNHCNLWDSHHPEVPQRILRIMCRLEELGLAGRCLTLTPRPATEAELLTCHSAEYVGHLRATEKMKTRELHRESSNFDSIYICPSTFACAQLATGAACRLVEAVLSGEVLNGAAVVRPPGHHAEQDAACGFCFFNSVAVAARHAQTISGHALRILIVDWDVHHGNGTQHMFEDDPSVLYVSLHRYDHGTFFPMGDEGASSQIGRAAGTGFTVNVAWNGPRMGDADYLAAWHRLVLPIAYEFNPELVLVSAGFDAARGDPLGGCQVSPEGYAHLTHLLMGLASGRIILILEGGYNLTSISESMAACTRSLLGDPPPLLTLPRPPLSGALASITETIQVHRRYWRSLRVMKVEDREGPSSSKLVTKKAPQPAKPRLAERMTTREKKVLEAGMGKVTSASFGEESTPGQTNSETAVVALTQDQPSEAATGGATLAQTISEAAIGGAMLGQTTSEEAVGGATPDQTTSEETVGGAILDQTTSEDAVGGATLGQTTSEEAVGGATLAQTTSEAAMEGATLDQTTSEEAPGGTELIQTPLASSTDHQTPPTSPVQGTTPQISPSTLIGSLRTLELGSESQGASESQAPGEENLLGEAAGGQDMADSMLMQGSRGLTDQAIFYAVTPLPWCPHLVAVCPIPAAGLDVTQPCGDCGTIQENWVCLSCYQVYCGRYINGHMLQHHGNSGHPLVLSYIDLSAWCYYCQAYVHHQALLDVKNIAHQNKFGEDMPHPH

Jurkat cells = experiment: Cell death determination by flow cytometry (Hoechst 33342/PI), Jurkat; settings: 5 μM, 48 h
Experimental: Jurkat cells (5 × 10^5) were seeded on 6-well plates. The next day, cells were treated with indicated concentrations of compounds for 48 h. Cells were harvested after incubation, washed twice in cold PBS, centrifuged, and stained with 7 μM Hoechst 33342 and 2 μM of Propidium iodide (PI) sequentially, and then determined by NovoCyte Quanteon Flow Cytometer (Agilent Technologies, CA, USA). Cells stained only with Hoechst 33342 were counted as live cells, while cells stained with both Hoechst 33342 and PI were counted as dead cells.

HCT116 cells = experiment: Apoptosis assay (Annexin V-FITC/PI flow cytometry), HCT116; design: Q1 (flow cytometry quadrant) / Q2 (flow cytometry quadrant) / Q3 (flow cytometry quadrant) / Q4 (flow cytometry quadrant): unit not given here; settings: 48 h
Experimental: The cell apoptosis assay was performed using eBioscience Annexin V-FITC/PI Apoptosis Detection Kit (Thermo Fisher Scientific, Carlsbad, CA, USA). Jurkat cells (5 × 10^5) and HCT116 cells (3 × 10^5) were treated with different concentrations of test compounds for 24 or 48 h. Cells were harvested after incubation, washed twice in cold PBS, centrifuged, and resuspended in 1X annexin-binding buffer. According to the manufacturer’s instructions, cells were incubated with Annexin V and Propidium iodide (PI) sequentially. All samples were analyzed by NovoCyte Quanteon Flow Cytometer (Agilent Technologies, CA, USA).

IKZF3 = molecular target: T2, IKZF3 (Homo sapiens, UniProt Q9UKT9); experiment: IKZF3 level in Jurkat cells, Western blot; settings: 6 h
T2 construct: endogenous in cells; host or cells: Jurkat

HDAC11 = molecular target: T3, HDAC11 (Homo sapiens, UniProt Q96DB2); experiment: HDAC11 level in Jurkat cells, Western blot; settings: 6 h
T3 construct: endogenous in cells; host or cells: Jurkat
T3 sequence (Q96DB2 1-347): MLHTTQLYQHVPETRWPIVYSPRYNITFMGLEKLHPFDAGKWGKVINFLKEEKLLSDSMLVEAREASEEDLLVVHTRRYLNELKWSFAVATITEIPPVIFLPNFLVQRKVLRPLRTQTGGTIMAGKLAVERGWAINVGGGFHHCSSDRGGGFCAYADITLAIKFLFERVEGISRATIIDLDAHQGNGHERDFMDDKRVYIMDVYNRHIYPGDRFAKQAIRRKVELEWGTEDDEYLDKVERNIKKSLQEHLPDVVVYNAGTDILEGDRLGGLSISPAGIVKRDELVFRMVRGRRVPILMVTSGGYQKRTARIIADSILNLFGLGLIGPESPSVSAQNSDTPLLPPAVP

acetyl-SMC3 (Ac-SMC3) = experiment: Ac-SMC3 level in HCT116 cells, Western blot; settings: 6 h
HDAC6 [2] = molecular target: T1, HDAC6; experiment: HDAC6 level in HCT116 cells, Western blot; design: endogenous in cells; host or cells: HCT116; settings: 6 h
HDAC4 = molecular target: T4, HDAC4 (Homo sapiens, UniProt P56524); experiment: HDAC4 level in Jurkat cells, Western blot; settings: 6 h
T4 construct: endogenous in cells; host or cells: Jurkat
T4 sequence (P56524 whole entry): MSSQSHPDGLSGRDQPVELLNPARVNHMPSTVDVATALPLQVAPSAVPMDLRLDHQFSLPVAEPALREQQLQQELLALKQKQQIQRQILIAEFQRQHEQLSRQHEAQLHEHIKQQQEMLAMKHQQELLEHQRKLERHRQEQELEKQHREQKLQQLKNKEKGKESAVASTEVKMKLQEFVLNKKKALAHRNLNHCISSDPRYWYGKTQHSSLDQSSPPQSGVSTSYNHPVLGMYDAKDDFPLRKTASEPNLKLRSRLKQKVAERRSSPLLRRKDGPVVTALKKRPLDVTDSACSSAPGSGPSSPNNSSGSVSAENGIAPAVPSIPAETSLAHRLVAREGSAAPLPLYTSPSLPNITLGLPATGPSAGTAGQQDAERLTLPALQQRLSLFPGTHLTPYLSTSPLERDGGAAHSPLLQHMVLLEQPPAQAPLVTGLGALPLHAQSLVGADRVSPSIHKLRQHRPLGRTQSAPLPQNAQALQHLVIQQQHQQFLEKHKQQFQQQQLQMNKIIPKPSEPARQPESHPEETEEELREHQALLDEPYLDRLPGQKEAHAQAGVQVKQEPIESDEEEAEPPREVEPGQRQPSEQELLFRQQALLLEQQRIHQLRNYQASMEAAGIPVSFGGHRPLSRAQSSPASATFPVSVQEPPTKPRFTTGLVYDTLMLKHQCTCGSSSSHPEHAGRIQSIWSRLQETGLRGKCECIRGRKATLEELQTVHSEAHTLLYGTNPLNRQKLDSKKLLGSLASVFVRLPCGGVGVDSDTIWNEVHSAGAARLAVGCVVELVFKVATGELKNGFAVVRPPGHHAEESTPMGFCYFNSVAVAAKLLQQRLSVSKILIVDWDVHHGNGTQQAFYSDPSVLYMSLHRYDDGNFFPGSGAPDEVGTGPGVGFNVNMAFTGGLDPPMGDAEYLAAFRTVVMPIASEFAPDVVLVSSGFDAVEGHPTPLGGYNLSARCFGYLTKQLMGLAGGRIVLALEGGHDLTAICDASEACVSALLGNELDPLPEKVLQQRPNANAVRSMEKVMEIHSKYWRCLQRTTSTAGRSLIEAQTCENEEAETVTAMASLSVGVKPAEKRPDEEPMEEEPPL

T2 sequence (Q9UKT9 whole entry): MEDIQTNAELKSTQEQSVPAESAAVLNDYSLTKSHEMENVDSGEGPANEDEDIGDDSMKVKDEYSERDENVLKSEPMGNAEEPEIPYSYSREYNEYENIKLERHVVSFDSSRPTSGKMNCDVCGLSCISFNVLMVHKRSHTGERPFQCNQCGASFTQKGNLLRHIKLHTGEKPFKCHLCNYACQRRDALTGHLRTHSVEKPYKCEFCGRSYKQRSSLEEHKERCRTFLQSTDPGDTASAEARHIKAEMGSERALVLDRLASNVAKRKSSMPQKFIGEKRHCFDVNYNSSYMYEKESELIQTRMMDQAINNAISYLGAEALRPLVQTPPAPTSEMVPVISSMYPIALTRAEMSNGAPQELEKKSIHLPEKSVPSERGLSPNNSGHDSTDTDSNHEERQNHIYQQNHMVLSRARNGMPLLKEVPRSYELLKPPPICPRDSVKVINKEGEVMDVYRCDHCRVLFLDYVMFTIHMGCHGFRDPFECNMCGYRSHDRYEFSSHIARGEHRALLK

Structure (SMILES): CCCCCCNNC(=O)c1ccc(CNC(=O)CN2CCC(c3ccc(NC4CCC(=O)NC4=O)cc3)CC2)cc1 (centres unmarked) [Z16, 2-(4-(4-((2,6-Dioxopiperidin-3-yl)amino)phenyl)piperidin-1-yl)-N-(4-(2-hexylhydrazine-1-carbonyl)benzyl)acetamide]
- HDAC6 degradation (in words) (HDAC6 [1]): no obvious
- cell death induced (Jurkat cells): 10%
- Q1 (flow cytometry quadrant) (HCT116 cells; 1.1 μM): 4.38
- Q2 (flow cytometry quadrant) (HCT116 cells; 1.1 μM): 5.93
- Q3 (flow cytometry quadrant) (HCT116 cells; 1.1 μM): 10.3
- Q4 (flow cytometry quadrant) (HCT116 cells; 1.1 μM): 79.4
- Q1 (flow cytometry quadrant) (HCT116 cells; 3.3 μM): 2.37
- Q2 (flow cytometry quadrant) (HCT116 cells; 3.3 μM): 32.3
- Q3 (flow cytometry quadrant) (HCT116 cells; 3.3 μM): 44.6
- Q4 (flow cytometry quadrant) (HCT116 cells; 3.3 μM): 20.7
- apoptosis induced (HCT116 cells; 3.3 μM): over 70%
- Q1 (flow cytometry quadrant) (HCT116 cells; 10 μM): 2.80
- Q2 (flow cytometry quadrant) (HCT116 cells; 10 μM): 57.3
- Q3 (flow cytometry quadrant) (HCT116 cells; 10 μM): 24.9
- Q4 (flow cytometry quadrant) (HCT116 cells; 10 μM): 15.1
- intracellular level of IKZF3 (in words) (IKZF3): did not significantly affect
- HDAC11 degradation (in words) (HDAC11): no obvious
- concentration at which increased acetylation of SMC3 started (acetyl-SMC3 (Ac-SMC3)): 40 nM
- impact on HDAC6 (in words) (HDAC6 [2]): without significant impact
- HDAC4 degradation (in words) (HDAC4): no obvious
